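Briefly, cells in 96-well plates were exposed to five compound concentrations for 48 h, and endpoints were estimated by linear interpolation. GI50: concentration for 50% inhibition of growth.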 The source made the active and inactive calls. Cut-off read from the data, not from the text of the source: active = GI50 up to about 1.1 µM and inactive = higher.
Assays:
Experiment in all cases: NCI-60 cell line screen, 48 h
UACC-257 = tested on: UACC-257
EKVX = tested on: EKVX
KM-20L2 = tested on: KM-20L2
DLD-1 = tested on: DLD-1
SF-295 = tested on: SF-295
OVCAR-3 = tested on: OVCAR-3
SF-539 = tested on: SF-539
TK-10 = tested on: TK-10
UACC-62 = tested on: UACC-62
ACHN = tested on: ACHN
HOP-92 = tested on: HOP-92
LXFL 529 = tested on: LXFL 529
SK-MEL-5 = tested on: SK-MEL-5
DU-145 = tested on: DU-145
BT-549 = tested on: BT-549
PC-3 = tested on: PC-3
T47D = tested on: T47D
Hs-578T = tested on: Hs-578T
M19-MEL = tested on: M19-MEL
DMS-273 = tested on: DMS-273

| Structure (SMILES) | GI50 (UACC-257) | GI50 (EKVX) | GI50 (KM-20L2) | GI50 (DLD-1) | GI50 (SF-295) | GI50 (OVCAR-3) | GI50 (SF-539) | GI50 (TK-10) | GI50 (UACC-62) | GI50 (ACHN) | GI50 (HOP-92) | GI50 (LXFL 529) | GI50 (SK-MEL-5) | GI50 (DU-145) | GI50 (BT-549) | GI50 (PC-3) | GI50 (T47D) | GI50 (Hs-578T) | GI50 (M19-MEL) | GI50 (DMS-273) |
| --- | --- | --- | --- | --- | --- | --- | --- | --- | --- | --- | --- | --- | --- | --- | --- | --- | --- | --- | --- | --- |
| COC1OC2=CCC3C(=O)NC(=O)C3C2[C@H](OCc2ccccc2)C1OCc1ccccc1 (stereo not given in full) | 2.09 µM (inactive) | 1.85 µM (inactive) | 2.25 µM (inactive) | 1.97 µM (inactive) | 18.1 µM (inactive) | 1.71 µM (inactive) | 17.3 µM (inactive) | 1.72 µM (inactive) | 2.46 µM (inactive) | 19.9 µM (inactive) | 1.63 µM (inactive) | 1.68 µM (inactive) | 19 µM (inactive) | – | – | – | – | – | – | – |
| CCOC(=O)NC(C(F)(F)F)(C(F)(F)F)P(=O)(OCC(C)C)OCC(C)C | – | 21.6 µM (inactive) | – | – | 24.8 µM (inactive) | 19.1 µM (inactive) | 15.7 µM (inactive) | 11.9 µM (inactive) | 11.7 µM (inactive) | 8.34 µM (inactive) | 9.38 µM (inactive) | – | 12.1 µM (inactive) | 35 µM (inactive) | 13.2 µM (inactive) | 6.37 µM (inactive) | 23.8 µM (inactive) | 14.9 µM (inactive) | – | – |
| CSc1nsc(-c2ccccc2)[s+]1.[O-][Cl+3]([O-])([O-])[O-] | > 100 µM (inactive) | > 100 µM (inactive) | > 100 µM (inactive) | > 100 µM (inactive) | – | > 100 µM (inactive) | > 100 µM (inactive) | > 100 µM (inactive) | > 100 µM (inactive) | > 100 µM (inactive) | – | – | > 100 µM (inactive) | – | – | – | – | – | > 100 µM (inactive) | > 100 µM (inactive) |
| C/C(=N/NC(N)=S)c1ccc2ccccc2c1 | 41.9 µM (inactive) | 0.443 µM (active) | 23.7 µM (inactive) | 21.2 µM (inactive) | 29.4 µM (inactive) | 30.4 µM (inactive) | 17.1 µM (inactive) | 74.6 µM (inactive) | 9.42 µM (inactive) | 55.6 µM (inactive) | > 100 µM (inactive) | 22.3 µM (inactive) | 14.2 µM (inactive) | – | – | – | – | – | 9.79 µM (inactive) | 24.9 µM (inactive) |
| CCCCCCCSCC(O)COC(c1ccccc1)(c1ccccc1)c1ccccc1 (stereo not given) | 34.5 µM (inactive) | 53 µM (inactive) | – | – | 35.3 µM (inactive) | 29.2 µM (inactive) | > 100 µM (inactive) | 87.3 µM (inactive) | 65.8 µM (inactive) | 25.5 µM (inactive) | 26.7 µM (inactive) | – | 23.6 µM (inactive) | > 100 µM (inactive) | 73.1 µM (inactive) | 29.3 µM (inactive) | 32.7 µM (inactive) | 3.52 µM (inactive) | – | – |
| C/C(=N\Oc1cc(Cl)ncn1)c1ccccn1 | 99.8 µM (inactive) | 38.5 µM (inactive) | – | – | 63 µM (inactive) | 20.2 µM (inactive) | 29.6 µM (inactive) | 59 µM (inactive) | 47.5 µM (inactive) | 90.6 µM (inactive) | 20.5 µM (inactive) | – | 28.1 µM (inactive) | 48.9 µM (inactive) | 85.3 µM (inactive) | 45.3 µM (inactive) | 30.2 µM (inactive) | 32.8 µM (inactive) | – | – |
| CC(=O)OCc1nnn2c1CCC2 | > 100 µM (inactive) | > 100 µM (inactive) | > 100 µM (inactive) | > 100 µM (inactive) | > 100 µM (inactive) | > 100 µM (inactive) | > 100 µM (inactive) | > 100 µM (inactive) | > 100 µM (inactive) | > 100 µM (inactive) | > 100 µM (inactive) | > 100 µM (inactive) | > 100 µM (inactive) | – | – | – | – | – | > 100 µM (inactive) | – |
| C=C(C)C(=O)OC1CCC2(C)C(CCC3C2CCC2(C)C(c4ccc(=O)oc4)CC4OC432)C1 (stereo not given) | 2.96 µM (inactive) | 2.42 µM (inactive) | 6.92 µM (inactive) | 2.18 µM (inactive) | 5.07 µM (inactive) | 4.57 µM (inactive) | 5.35 µM (inactive) | – | 3.33 µM (inactive) | – | 0.804 µM (active) | – | 3.8 µM (inactive) | – | – | – | – | – | 3.91 µM (inactive) | 3.31 µM (inactive) |
| O=C1CC2(CCC(O)(c3cccs3)C(C(=O)c3cccs3)C2)C(=O)c2ccccc2N1 (stereo not given) | > 100 µM (inactive) | > 100 µM (inactive) | – | – | > 100 µM (inactive) | 63.8 µM (inactive) | > 100 µM (inactive) | > 100 µM (inactive) | > 100 µM (inactive) | – | > 100 µM (inactive) | – | 11.8 µM (inactive) | 67.3 µM (inactive) | > 100 µM (inactive) | 51.8 µM (inactive) | 18.2 µM (inactive) | > 100 µM (inactive) | – | – |
| COc1ccc(CN2C(=O)C(=O)N(C)C2=O)c2ccccc12 | – | > 10 µM (inactive) | – | – | > 10 µM (inactive) | > 10 µM (inactive) | > 10 µM (inactive) | > 10 µM (inactive) | > 10 µM (inactive) | > 10 µM (inactive) | – | – | > 10 µM (inactive) | > 10 µM (inactive) | – | > 10 µM (inactive) | > 10 µM (inactive) | 1.55 µM (inactive) | – | – |
| O=C1C=C(C2OC(CO)C(O)C2O)C(=O)N1 (stereo not given) | > 100 µM (inactive) | > 100 µM (inactive) | > 100 µM (inactive) | > 85.3 µM (inactive) | > 100 µM (inactive) | > 100 µM (inactive) | > 100 µM (inactive) | – | > 100 µM (inactive) | – | > 100 µM (inactive) | – | > 100 µM (inactive) | – | – | – | – | – | > 100 µM (inactive) | > 100 µM (inactive) |
| CCOc1ccc(NC(=O)C(=O)CC(=O)c2sc(NNC(C)=O)nc2C)cc1 | > 100 µM (inactive) | 40.9 µM (inactive) | > 100 µM (inactive) | > 100 µM (inactive) | > 100 µM (inactive) | – | > 100 µM (inactive) | > 100 µM (inactive) | > 100 µM (inactive) | > 100 µM (inactive) | > 100 µM (inactive) | > 100 µM (inactive) | > 100 µM (inactive) | – | – | – | – | – | > 100 µM (inactive) | > 100 µM (inactive) |
| CN(Cc1cnc2nc(N)nc(N)c2n1)c1ccc(C(=O)NC(CCC(=O)O)C(=O)O)cc1C(F)(F)F (stereo not given) | 25.8 µM (inactive) | > 27 µM (inactive) | – | – | < 0.01 µM (active) | – | < 0.01 µM (active) | > 78.3 µM (inactive) | < 0.01 µM (active) | < 0.01 µM (active) | > 100 µM (inactive) | – | < 0.01 µM (active) | < 0.01 µM (active) | – | < 0.01 µM (active) | > 100 µM (inactive) | > 72.9 µM (inactive) | – | – |
| COc1ccc2c(c1)C(=O)/C(=C/c1ccccc1)C2 | – | – | – | – | > 100 µM (inactive) | 39.2 µM (inactive) | – | – | 52.6 µM (inactive) | – | 59.7 µM (inactive) | – | 29.4 µM (inactive) | > 100 µM (inactive) | 27.2 µM (inactive) | 68.9 µM (inactive) | – | > 100 µM (inactive) | – | – |
| CN(C(=O)C1(C(=O)C=[N+]=[N-])CC1)c1ccccc1 | > 100 µM (inactive) | > 100 µM (inactive) | – | – | > 100 µM (inactive) | > 100 µM (inactive) | > 100 µM (inactive) | > 100 µM (inactive) | > 100 µM (inactive) | > 100 µM (inactive) | – | – | > 100 µM (inactive) | > 100 µM (inactive) | > 100 µM (inactive) | > 100 µM (inactive) | – | > 100 µM (inactive) | – | – |
| COc1ccc(-c2cc3[nH]nc(N)c3c(=O)o2)cc1 | > 100 µM (inactive) | 14 µM (inactive) | > 100 µM (inactive) | > 100 µM (inactive) | > 100 µM (inactive) | – | > 100 µM (inactive) | > 100 µM (inactive) | – | > 100 µM (inactive) | > 100 µM (inactive) | > 100 µM (inactive) | > 100 µM (inactive) | – | – | – | – | – | – | > 100 µM (inactive) |
| COc1ccc(/C(C#N)=C2/O/C(=N/N)C(c3ccc(OC)c(OC)c3)C2=O)cc1OC (stereo not given) | > 100 µM (inactive) | > 100 µM (inactive) | > 100 µM (inactive) | > 100 µM (inactive) | > 100 µM (inactive) | > 100 µM (inactive) | > 100 µM (inactive) | > 100 µM (inactive) | > 100 µM (inactive) | > 100 µM (inactive) | > 100 µM (inactive) | > 100 µM (inactive) | > 100 µM (inactive) | – | – | – | – | – | > 100 µM (inactive) | > 100 µM (inactive) |
| Cc1occc1/C(S)=N\c1ccc(Cl)c(C(=O)OCC(F)(F)F)c1 | 23.4 µM (inactive) | 25.5 µM (inactive) | – | – | – | 29.6 µM (inactive) | 4.31 µM (inactive) | 20.2 µM (inactive) | 16.4 µM (inactive) | 21.8 µM (inactive) | 17.4 µM (inactive) | – | 16.7 µM (inactive) | 22.4 µM (inactive) | 20.5 µM (inactive) | 23.7 µM (inactive) | 26.5 µM (inactive) | 35.6 µM (inactive) | – | – |
| C=CCCCCCCCCC(=O)O [UNDECYLENIC ACID] | 179 µM (inactive) | 116 µM (inactive) | 114 µM (inactive) | 76.2 µM (inactive) | 109 µM (inactive) | 67 µM (inactive) | 110 µM (inactive) | – | 79.8 µM (inactive) | – | 83.2 µM (inactive) | – | 93.8 µM (inactive) | – | – | – | – | – | 149 µM (inactive) | 127 µM (inactive) |

From ChEMBL document CHEMBL1201862, “PubChem BioAssay data set” (2004)
